Results taken from patent US6723837B1, “Nucleic acid molecule and encoded protein associated with sterol synthesis and metabolism” (Monsanto Technology LLC, priority 1999, dated 2004).

Tested on: wild type yeast LPY9
Test: RNA abundance on yeast ORF array after ketoconazole treatment vs control without ketoconazole
Type: cell-based
Details: LPY9, 2 hr, vs untreated LPY9
Method: The yeast strain LPY9 (MATa, leu2, Ura3, his3) is grown overnight and inoculated into SD+ hul (histidine, uracil, leucine) media. Aliquots of the culture are treated with ketoconazole (an inhibitor of C-14α demethylase (P45014DM) enzyme) at 10 ug/ml, 50 ug/ml, and 100 ug/ml, corresponding to 10 ppm, 50 ppm, and 100 ppm, respectively. A sample of each is collected at 2, 4, and 6 hours after treatment. Control samples treated with DMSO (dimethyl sulfoxide-solvent for ketoconazole) but not with ketoconazole are also collected. Total RNA from each sample is collected by conventional methods, such as a Zirconium/Silica bead binding and extraction method. The sequence content of each sample is analyzed and compared by hybridizing each of them to a number of yeast ORF sequences immobilized on a Nylon membrane in an array format.
Table 2, below, lists the RNAs in each sample whose abundance is effected by ketoconazole treatment or whose abundance differs between wild type and the double mutant strain. The table also lists the corresponding gene or sequence identifier for those RNAs. The RNAs are ranked by the ratio of either ketocanozole vs. control or mutant vs. control, using the ratio of 50 ppm ketocanozole/control as a basis for comparison.

CC(=O)N1CCN(c2ccc(OCC3COC(Cn4ccnc4)(c4ccc(Cl)cc4Cl)O3)cc2)CC1 (centres unmarked) [ketoconazole]
K-50/CK expression level ratio: YAL001C (TFC3) (50 micro gram/ml): 0.4743
K-50/CK expression level ratio: YAL013W (DEP1) (50 micro gram/ml): 5.546
K-50/CK expression level ratio: YAL048C (50 micro gram/ml): 2.138
K-50/CK expression level ratio: YAR044W (OSH1) (50 micro gram/ml): 3.625
K-50/CK expression level ratio: YBL005W (PDR3) (50 micro gram/ml): 4.145
K-50/CK expression level ratio: YBL008W (HIR1) (50 micro gram/ml): 2.828
K-50/CK expression level ratio: YBR119W (MUD1) (50 micro gram/ml): 2.405
K-50/CK expression level ratio: YBR289W (SNF5) (50 micro gram/ml): 2.688
K-50/CK expression level ratio: YCL037C (SRO9) (50 micro gram/ml): 2.786
K-50/CK expression level ratio: YCR048W (ARE1) (50 micro gram/ml): 6.104
K-50/CK expression level ratio: YCR084C (TUP1) (50 micro gram/ml): 2.922
K-50/CK expression level ratio: YDL088C (ASM4) (50 micro gram/ml): 4.176
K-50/CK expression level ratio: YDR052C (DBF4) (50 micro gram/ml): 2.404
K-50/CK expression level ratio: YDR088C (SLU7) (50 micro gram/ml): 2.734
K-50/CK expression level ratio: YDR211W (GCD6) (50 micro gram/ml): 2.484
K-50/CK expression level ratio: YDR213W (50 micro gram/ml): 32.14
K-50/CK expression level ratio: YDR253C (MET32) (50 micro gram/ml): 0.3397
K-50/CK expression level ratio: YDR264C (AKR1) (50 micro gram/ml): 2.198
K-50/CK expression level ratio: YDR389W (SAC7) (50 micro gram/ml): 4.561
K-50/CK expression level ratio: YDR422C (SIP1) (50 micro gram/ml): 2.187
K-50/CK expression level ratio: YFL054C (50 micro gram/ml): 0.4794
K-50/CK expression level ratio: YFR009W (GCN20) (50 micro gram/ml): 2.486
K-50/CK expression level ratio: YFR034C (PHO4) (50 micro gram/ml): 11.22
K-50/CK expression level ratio: YGL001C (50 micro gram/ml): 2.821
K-50/CK expression level ratio: YGL014W (50 micro gram/ml): 3.229
K-50/CK expression level ratio: YGL071W (RCS1) (50 micro gram/ml): 3.696
K-50/CK expression level ratio: YGL112C (TAF60) (50 micro gram/ml): 2.077
K-50/CK expression level ratio: YGL192W (IME4) (50 micro gram/ml): 3.17
K-50/CK expression level ratio: YGR177C (ATF2) (50 micro gram/ml): 11.83
K-50/CK expression level ratio: YGR270W (YTA7) (50 micro gram/ml): 2.406
K-50/CK expression level ratio: YHL027W (RIM101) (50 micro gram/ml): 2.103
K-50/CK expression level ratio: YIL084C (SDS3) (50 micro gram/ml): 5.543
K-50/CK expression level ratio: YIR017C (MET28) (50 micro gram/ml): 0.3775
K-50/CK expression level ratio: YJL127C (SPT10) (50 micro gram/ml): 7.839
K-50/CK expression level ratio: YJR017C (ESS1) (50 micro gram/ml): 3.559
K-50/CK expression level ratio: YJR019C (TES1) (50 micro gram/ml): 2.83
K-50/CK expression level ratio: YKR034W (DAL80) (50 micro gram/ml): 5.044
K-50/CK expression level ratio: YLR098C (CHA4) (50 micro gram/ml): 4.756
K-50/CK expression level ratio: YLR120C (YAP3) (50 micro gram/ml): 3.623
K-50/CK expression level ratio: YLR153C (ACS2) (50 micro gram/ml): 3.379
K-50/CK expression level ratio: YLR249W (YEF3) (50 micro gram/ml): 3.145
K-50/CK expression level ratio: YMR019W (STB4) (50 micro gram/ml): 3.441
K-50/CK expression level ratio: YMR037C (MSN2) (50 micro gram/ml): 6.424
K-50/CK expression level ratio: YMR047C (NUP116) (50 micro gram/ml): 3.17
K-50/CK expression level ratio: YMR080C (NAM7) (50 micro gram/ml): 2.183
K-50/CK expression level ratio: YMR146C (TIF34) (50 micro gram/ml): 0.2248
K-50/CK expression level ratio: YNR019W (ARE2) (50 micro gram/ml): 1.791
K-50/CK expression level ratio: YOL067C (RTG1) (50 micro gram/ml): 10.03
K-50/CK expression level ratio: YOR127W (RGA1) (50 micro gram/ml): 2.532
K-50/CK expression level ratio: YOR237W (HES1) (50 micro gram/ml): 1418
K-50/CK expression level ratio: YOR337W (TEA1) (50 micro gram/ml): 2.979
K-50/CK expression level ratio: YPL028W (ERG10) (50 micro gram/ml): 2.019
K-50/CK expression level ratio: YPL119C (DBP1) (50 micro gram/ml): 3.246
K-50/CK expression level ratio: YPL226W (50 micro gram/ml): 2.889
K-50/CK expression level ratio: YPL237W (SUI3) (50 micro gram/ml): 2.563
K-50/CK expression level ratio: YPR080W (TEF1) (50 micro gram/ml): 2.212
K-100/CK expression level ratio: YAL001C (TFC3) (100 micro gram/ml): 1.192
K-100/CK expression level ratio: YAL013W (DEP1) (100 micro gram/ml): 6.425
K-100/CK expression level ratio: YAL048C (100 micro gram/ml): 4.221
K-100/CK expression level ratio: YAR044W (OSH1) (100 micro gram/ml): 3.884
K-100/CK expression level ratio: YBL005W (PDR3) (100 micro gram/ml): 6.083
K-100/CK expression level ratio: YBL008W (HIR1) (100 micro gram/ml): 2.887
K-100/CK expression level ratio: YBR119W (MUD1) (100 micro gram/ml): 1.399
K-100/CK expression level ratio: YBR289W (SNF5) (100 micro gram/ml): 3.039
K-100/CK expression level ratio: YCL037C (SRO9) (100 micro gram/ml): 2.394
K-100/CK expression level ratio: YCR048W (ARE1) (100 micro gram/ml): 10.53
K-100/CK expression level ratio: YCR084C (TUP1) (100 micro gram/ml): 3.272
K-100/CK expression level ratio: YDL088C (ASM4) (100 micro gram/ml): 3.321
K-100/CK expression level ratio: YDR052C (DBF4) (100 micro gram/ml): 1.583
K-100/CK expression level ratio: YDR088C (SLU7) (100 micro gram/ml): 2.688
K-100/CK expression level ratio: YDR211W (GCD6) (100 micro gram/ml): 1.824
K-100/CK expression level ratio: YDR213W (100 micro gram/ml): 58.36
K-100/CK expression level ratio: YDR253C (MET32) (100 micro gram/ml): 0.3279
K-100/CK expression level ratio: YDR264C (AKR1) (100 micro gram/ml): 2.752
K-100/CK expression level ratio: YDR389W (SAC7) (100 micro gram/ml): 4.314
K-100/CK expression level ratio: YDR422C (SIP1) (100 micro gram/ml): 2.084
K-100/CK expression level ratio: YFL054C (100 micro gram/ml): 0.6137
K-100/CK expression level ratio: YFR009W (GCN20) (100 micro gram/ml): 2.161
K-100/CK expression level ratio: YFR034C (PHO4) (100 micro gram/ml): 20.84
K-100/CK expression level ratio: YGL001C (100 micro gram/ml): 1.985
K-100/CK expression level ratio: YGL014W (100 micro gram/ml): 3.638
K-100/CK expression level ratio: YGL071W (RCS1) (100 micro gram/ml): 4.531
K-100/CK expression level ratio: YGL112C (TAF60) (100 micro gram/ml): 2.189
K-100/CK expression level ratio: YGL192W (IME4) (100 micro gram/ml): 6.478
K-100/CK expression level ratio: YGR177C (ATF2) (100 micro gram/ml): 12.56
K-100/CK expression level ratio: YGR270W (YTA7) (100 micro gram/ml): 1.946
K-100/CK expression level ratio: YHL027W (RIM101) (100 micro gram/ml): 2.593
K-100/CK expression level ratio: YIL084C (SDS3) (100 micro gram/ml): 6.907
K-100/CK expression level ratio: YIR017C (MET28) (100 micro gram/ml): 0.3009
K-100/CK expression level ratio: YJL127C (SPT10) (100 micro gram/ml): 10.1
K-100/CK expression level ratio: YJR017C (ESS1) (100 micro gram/ml): 3.221
K-100/CK expression level ratio: YJR019C (TES1) (100 micro gram/ml): 2.072
K-100/CK expression level ratio: YKR034W (DAL80) (100 micro gram/ml): 7.284
K-100/CK expression level ratio: YLR098C (CHA4) (100 micro gram/ml): 5.587
K-100/CK expression level ratio: YLR120C (YAP3) (100 micro gram/ml): 4.43
K-100/CK expression level ratio: YLR153C (ACS2) (100 micro gram/ml): 3.129
K-100/CK expression level ratio: YLR249W (YEF3) (100 micro gram/ml): 2.632
K-100/CK expression level ratio: YMR019W (STB4) (100 micro gram/ml): 3.398
K-100/CK expression level ratio: YMR037C (MSN2) (100 micro gram/ml): 7.661
K-100/CK expression level ratio: YMR047C (NUP116) (100 micro gram/ml): 4.774
K-100/CK expression level ratio: YMR080C (NAM7) (100 micro gram/ml): 2.171
K-100/CK expression level ratio: YMR146C (TIF34) (100 micro gram/ml): 0.7194
K-100/CK expression level ratio: YNR019W (ARE2) (100 micro gram/ml): 2.854
K-100/CK expression level ratio: YOL067C (RTG1) (100 micro gram/ml): 27.37
K-100/CK expression level ratio: YOR127W (RGA1) (100 micro gram/ml): 2.57
K-100/CK expression level ratio: YOR139C (SFL1) (100 micro gram/ml): 11.76
K-100/CK expression level ratio: YOR237W (HES1) (100 micro gram/ml): 1358
K-100/CK expression level ratio: YOR337W (TEA1) (100 micro gram/ml): 4.823
K-100/CK expression level ratio: YPL028W (ERG10) (100 micro gram/ml): 1.699
K-100/CK expression level ratio: YPL119C (DBP1) (100 micro gram/ml): 2.197
K-100/CK expression level ratio: YPL226W (100 micro gram/ml): 2.556
K-100/CK expression level ratio: YPL237W (SUI3) (100 micro gram/ml): 2.548
K-100/CK expression level ratio: YPR080W (TEF1) (100 micro gram/ml): 1.859
